Measured values published in ChEMBL document CHEMBL3880438, “Identification of modulators of GPR41 or GPR42 activity” (2001).
Activity calls are given as the source filed them. The calls are words filed in the database; no cut-off is given here.

What was measured:
[1] = target: T1, Free fatty acid receptor 3 (Homo sapiens) (UniProt O14843); assay: Agonist activity at human GPR41 expressed in HEK293T cell membranes co-expressing Go1lpha protein assessed as stimulation of [35S]GTPgammaS binding at 1 microM to 0.1 M incubated for 30 mins by scintillation counting method; assay type: functional; conditions: HEK-293T
T1 sequence (whole entry): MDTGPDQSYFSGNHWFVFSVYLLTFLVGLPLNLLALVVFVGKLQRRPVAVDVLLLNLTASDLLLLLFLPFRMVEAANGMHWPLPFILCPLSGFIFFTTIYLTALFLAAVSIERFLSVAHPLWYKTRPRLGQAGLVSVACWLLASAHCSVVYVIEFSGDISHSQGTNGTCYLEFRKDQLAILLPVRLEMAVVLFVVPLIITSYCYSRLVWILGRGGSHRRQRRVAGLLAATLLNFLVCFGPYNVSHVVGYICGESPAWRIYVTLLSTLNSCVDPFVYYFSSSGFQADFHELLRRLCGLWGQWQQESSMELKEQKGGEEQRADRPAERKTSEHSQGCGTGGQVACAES

[2] = target: T1, Free fatty acid receptor 3 (Homo sapiens); assay: Agonist activity at human GPR41 expressed in HEK293T cell membranes co-expressing Go1alpha protein assessed as stimulation of [35S]GTPgammaS binding at 0.1 microM to 0.1 M incubated for 30 mins by scintillation counting method; assay type: functional; conditions: HEK-293T
[3] = target: T2, Free fatty acid receptor 3 (Rattus norvegicus) (UniProt B2GV46); assay: Agonist activity at rat GPR41 expressed in Saccharomyces cerevisiae MMY11 co-expressing chimeric Gpa1/Ga0 at 0.5 mM to 50 mM incubated for 48 hrs by induction of FUSl-lacZ and FUS1-HIS3 reporter gene induction based pheromone response pathway coupled assay
T2 sequence (whole entry): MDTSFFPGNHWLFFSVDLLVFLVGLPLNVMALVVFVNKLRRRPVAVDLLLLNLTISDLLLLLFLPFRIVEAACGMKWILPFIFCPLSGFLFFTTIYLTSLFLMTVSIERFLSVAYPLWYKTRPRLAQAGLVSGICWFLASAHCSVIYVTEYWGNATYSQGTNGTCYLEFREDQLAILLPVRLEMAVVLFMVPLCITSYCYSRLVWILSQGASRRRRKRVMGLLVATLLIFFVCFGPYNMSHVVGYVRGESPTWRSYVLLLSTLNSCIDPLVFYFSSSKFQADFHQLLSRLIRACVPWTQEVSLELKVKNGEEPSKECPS

[4] = target: T2, Free fatty acid receptor 3 (Rattus norvegicus); assay: Agonist activity at rat GPR41 expressed in HEK293T cell membranes co-expressing Go1alpha protein assessed as stimulation of [35S]GTPgammaS binding at 0.1 microM to 0.1 M incubated for 30 mins by scintillation counting method; assay type: functional; conditions: HEK-293T
[5] = target: T2, Free fatty acid receptor 3 (Rattus norvegicus); assay: Agonist activity at GPR41 in rat primary adipocytes assessed as inhibition of isoprenaline-induced lipolysis by measuring glycerol level after 2 hrs; assay type: cell-based
[6] = target: T2, Free fatty acid receptor 3 (Rattus norvegicus); assay: Agonist activity at rat GPR41 expressed in Saccharomyces cerevisiae MMY11 co-expressing chimeric Gpa1/Galpha12 at 0.5 mM to 50 mM incubated for 48 hrs by induction of FUSl-lacZ and FUS1-HIS3 reporter gene induction based pheromone response pathway coupled assay
[7] = target: T2, Free fatty acid receptor 3 (Rattus norvegicus); assay: Agonist activity at rat GPR41 expressed in Saccharomyces cerevisiae MMY11 co-expressing chimeric Gpa1/Galpha13 at 0.5 mM to 50 mM incubated for 48 hrs by induction of FUSl-lacZ and FUS1-HIS3 reporter gene induction based pheromone response pathway coupled assay

| Compound | Activity [2] | Activity [4] | Activity [5] | also measured |
| --- | --- | --- | --- | --- |
| CC(O)CC(=O)O (racemic) | – | – | – | Activity [1]: Active |
| CCCC(=O)[O-].CCCCC(=O)[O-].[K+].[Na+] | Active | – | – | – |
| CCC(=O)[O-].[Na+] [SODIUM PROPIONATE] | Active | Active | Dose-dependent effect | Activity [3]: Active; Activity [6]: Active; Activity [7]: Active |
| CCCCC(=O)[O-].[K+] | – | – | Active | – |
| CC(=O)[O-].N.O=CO.[Na+] | Active | Active | Dose-dependent effect | – |
| CC(=O)[O-].[Na+] | – | – | Dose-dependent effect | – |
